# Laboratory results reported in patent US9770481B2, “Inhibitors of NOX1” (UNIVERSITY OF PITTSBURGH—OF THE COMMONWEALTH SYSTEM OF …, priority 2011, dated 2017).
# Ends that are not written are not given here.
# What was measured:
# Nox1-YFP = test: Image cross correlation spectroscopy (ICCS) of R-NoxA1ds and Nox1-YFP; assay type: binding; conditions: ICCS, 100 images 0.05 s apart
# Procedure: An ELISA of Nox1:NoxA1ds interaction was performed as follows. Neutravidin coated plates were incubated with biotin-tagged NoxA1ds (Biotin-NoxA1ds) or biotin-tagged SCRMB (Biotin-SCRMB) before addition of cell membranes prepared from cells transfected with Nox1 (Nox1 membrane) or transfected with an empty vector (COS22 membrane). Bound Nox1 was detected through a FITC conjugated secondary antibody (αRabbit Ab Sigma F9887) bound to the Nox1 primary antibody (rabbit αNox1 Ab (SC-25545, Santa Cruz Biotechnology)). FITC fluorescence was expressed as binding as % COS22 membranes on each experimental day. […] To further confirm the association, image cross correlation spectroscopy (ICCS) was used to determine patterns in signal fluctuation between rhodamine-labeled NoxA1ds (R-NoxA1ds) and Nox1-YFP though a sequence of 100 images 0.05 s apart. Correlation and cross-correlation was calculated using an ImageJ plugin.
# [1] = tested on: rat aortic smooth muscle cells; test: Calponin and osteopontin expression in stretched rat aortic smooth muscle cells (Western blot); assay type: cell-based; conditions: 10 μM added every four hours; cyclic stretch 24 hrs
# Procedure: The effect of Nox1 inhibition on the expression of certain protein markers of rat aortic smooth muscle cell contractile vs. synthetic phenotypes was evaluated. Cells were subjected to 24 hrs of cyclic stretch (10%, 1 Hz) with 10 μM NoxA1ds or SCRMB control being added every four hours. […] Calponin expression during stretch was rescued by the addition of 10 μM NoxA1ds, yet was unaffected by the addition of 10 μM scrambled peptide (SCRMB). A representative Western blot is shown below the graph (FIG. 9B). Osteopontin (OPN, a marker of the […] phenotype), expression increased after 24 hrs of stretch.
# [2] = tested on: HT-29 colon adenocarcinoma cells; test: O2- production by HT-29 cells (SOD inhibitable reduction of cytochrome c); assay type: cell-based; conditions: increasing doses
# [3] = molecular target: T1, interaction between Nox1 and NoxA1 (Homo sapiens, UniProt Q9Y5S8); test: FRET between Nox1-YFP and NoxA1-CFP in transfected COS22 cells; assay type: cell-based; conditions: 10 μM, one hour prior to imaging
# T1 construct: expressed in transfected cells; host or cells: COS22
# T1 sequence (Q9Y5S8 1-564): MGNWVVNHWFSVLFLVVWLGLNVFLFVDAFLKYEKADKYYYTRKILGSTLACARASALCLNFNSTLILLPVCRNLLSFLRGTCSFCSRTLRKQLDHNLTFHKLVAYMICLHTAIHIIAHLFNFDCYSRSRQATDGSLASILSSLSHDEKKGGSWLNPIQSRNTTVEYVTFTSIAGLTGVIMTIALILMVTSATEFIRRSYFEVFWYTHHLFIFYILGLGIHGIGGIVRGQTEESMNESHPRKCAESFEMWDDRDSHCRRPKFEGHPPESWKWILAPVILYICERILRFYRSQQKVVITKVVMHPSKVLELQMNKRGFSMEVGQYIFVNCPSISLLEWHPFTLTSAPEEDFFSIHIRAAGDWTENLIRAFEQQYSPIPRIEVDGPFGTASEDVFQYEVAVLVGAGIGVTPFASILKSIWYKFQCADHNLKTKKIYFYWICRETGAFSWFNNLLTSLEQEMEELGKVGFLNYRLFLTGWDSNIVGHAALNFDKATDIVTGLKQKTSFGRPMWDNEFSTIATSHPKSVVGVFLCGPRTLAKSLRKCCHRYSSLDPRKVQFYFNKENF
# T1 sequence (P13498 2-195 partner limits assumed): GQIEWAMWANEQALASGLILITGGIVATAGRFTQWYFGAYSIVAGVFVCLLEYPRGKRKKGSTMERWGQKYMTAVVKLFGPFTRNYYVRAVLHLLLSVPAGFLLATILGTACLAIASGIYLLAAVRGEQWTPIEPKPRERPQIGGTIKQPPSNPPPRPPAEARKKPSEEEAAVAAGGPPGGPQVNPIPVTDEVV
# Procedure: FRET (fluorescence resonance energy transfer) studies were performed to study the effect of NoxA1ds on the interaction between Nox1 and NoxA1: In particular, FRET between Nox1-YFP and NoxA1-CFP transfected COS22 cells in the presence or absence of 10 μM NoxA1ds or SCRMB was evaluated. Relative fluorescence of CFP is green while YFP is red. Traces underneath the images indicate fluorescent intensities of CFP and YFP underneath the arrow overlaid on each cell.
# Nox1 = molecular target: T2, Nox1 (Homo sapiens, UniProt Q9Y5S8); test: O2- production by COS22 cells transfected with Nox1 (cytochrome c reduction); assay type: cell-based; conditions: increasing concentrations
# T2 construct: expressed in transfected cells; host or cells: COS22 (monkey kidney COS cells stably expressing human p22phox)
# T2 sequence (Q9Y5S8 1-564): T1 sequence (Q9Y5S8 1-564)
# T2 sequence (P13498 1-195 partner): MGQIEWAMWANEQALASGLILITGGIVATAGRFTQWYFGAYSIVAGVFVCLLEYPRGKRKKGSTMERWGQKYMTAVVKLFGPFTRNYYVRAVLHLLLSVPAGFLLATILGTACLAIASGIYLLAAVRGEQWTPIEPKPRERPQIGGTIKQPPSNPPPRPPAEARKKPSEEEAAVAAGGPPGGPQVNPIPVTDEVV
# Procedure: Experiments were performed to test the effect of NoxA1ds on O2^− production by Nox1. COS22 is a monkey kidney COST cell line expressing transgenic human p22phox and was produced by stable transfection of the full-length p22phox cDNA into parental COST wild-type cells. COS22 cells were transfected with Nox1 to express the Nox1 enzyme and were then treated with either NoxA1ds or its scrambled control (SCRMB). Production of O2^− was calculated by monitoring the reduction of cytochrome c for 15 minutes post NADPH addition and subtracting baseline cytochrome c reduction occurring in the presence of SOD.
# [4] = tested on: human pulmonary artery endothelial cells; test: Hypoxia-induced superoxide production by human pulmonary artery endothelial cells; assay type: cell-based
# Procedure: Experiments were also performed to evaluate the effect of NoxA1ds on hypoxia-induced superoxide production by human pulmonary artery endothelial cells.
Substance,Fractional binding of Nox1-YFP and R-NoxA1ds (Nox1-YFP),Calponin expression during stretch [1],Osteopontin (OPN) expression during stretch [1],Inhibition of O2- production by HT-29 cells [2],CFP fluorescence after photobleaching of Nox1-YFP (FRET) [3],Inhibition of Nox1-derived O2- production (Nox1),"O2- production under hypoxia ([4]; hypoxia 1.0% O2, 24 hrs)",O2- production under normoxic conditions ([4]; normoxia)
"R-NoxA1ds: rhodamine-labeled NoxA1ds (EPVDALGKAKV-NH2; also: rhodamine label, position not given here)",~1.0,,,,,,,
"SCRMB: inactive, scrambled version of NoxA1ds (negative control) (H-LVKGPDAEKVA-NH2) [reference compound]",,unaffected,unaffected,did not inhibit,resulted in a concomitant increase in CFP fluorescence,did not inhibit,unaffected,negligible effect
